Patent US10632169B2, “Methods of using GM604 in modulating ALS disease biomarkers leading to prognosis and therapeutic treatment for ALS disease” (Genervon Biopharmaceuticals, LLC, priority 2015, dated 2020)
Residues, ends and D or L forms follow the SMILES beside them.

How the values were obtained:
[1] = GALS-001 Phase 2A trial, safety and tolerability; format: in vivo, human
Description: A total of twelve patients were enrolled in the ALS Phase 2A study. Six subjects enrolled at Site 1 and six subjects enrolled at Site 2. Dosing was by slow bolus intravenous administration, once a day for 3 times a week for 2 weeks. Eight patients were randomized to receive 320 mg GM604 per dose and four patients to receive placebo. Our inclusion/exclusion criteria required the ALS patients in the Phase 2A trial to be “definite” ALS sufferers according to El Escorial criteria (i.e., the disease progression must involve upper and lower motoneuron and the bulbar region) who had experienced disease onset within 24 months prior to the beginning of the trial. The goal is to enroll fast progressing patients. Our dosing regimen was delivered via intravenous bolus dosing three times a week (Monday, Wednesday, Friday) for two consecutive weeks, for a total of 6 doses. There was no dosing after the two weeks' treatment, and the patients were followed and evaluated for the next ten weeks. The clinical data for the ALSFRS-R, FVC, TUG, and the Grip Strength and HHD were measured at Baseline, Week 2, Week 6, and Week 12.
1. Safety and tolerability were evaluated based on the results of adverse events, vital signs, electrocardiography (ECG) measurements, physical and neurological examinations, safety laboratory monitoring, and hypersensitivity and injection site reactions.

[2] = shown in U.S. Pat. No. 8,673,852; cited from earlier work
[3] = GALS-C compassionate use, clinical observations; format: in vivo, human; conditions: during the GALS-C trial
Description: GALS Compassionate Use (GALS-C) A ALS patient was first diagnosed with the disease in Q1 2005 and by Q3 2008 was quadriplegic and on a ventilator. The FDA approved a compassionate-use application of the MNTF6mer known as GM604 for this patient (IND #120052) using a protocol that followed the Phase 2A trial. This program was thus dubbed GALS-C. GALS-C Study Design
8. Exploratory clinical outcome measures will include the rate of decline of the ALS Functional Rating Scale Revised (ALSFRS-R), Forced Vital Capacity (FVC), stabilization or improvement in any clonus or spasticity symptoms, speech, swallowing, drooling, lingual/oral muscle, improved time off vent (self-breathing) and any movement or increase movement of any muscle groups. To estimate the participant's rate of progression prior to treatment, an ALSFRS-R of 48 will be assumed at date of symptom onset. There will be 2 weeks of active treatment, followed by 10 weeks of assessment without active treatment.
This compassionate trial follows the similar protocol and same dosing regimen as in the Phase 2A ALS trial. […]
Since the compassionate patient was very advanced, the usual clinical evaluations such as ALS functional rating scale (ALSFRS), forced vital capacity (FVC), and muscle strength were not used. […] The initial CSF before dosing and the CSF sample after the 6th dose were collected and analyzed. […]

surviving motor neurons = conditions: in vivo administration; blocked by anti-MNTF1 monoclonal antibody; cited from earlier work
[4] = test system: anterior horn motor neurons isolated from rat lumbar spinal cord explants; conditions: naturally occurring and recombinant MNTF1; U.S. Pat. No. 6,309,877; cited from earlier work

Row | Compound | Headache, GM604-treated patients ([1]; 2 patients of 8) [%] | Puncture site pain, GM604-treated patients ([1]; 3 patients of 8) [%] | Falls, GM604-treated patients ([1]; 4 patients of 8) [%] | Patients with at least 1 Treatment-emergent adverse event (TEAE) ([1]; GM604 treatment group, placebo 4 out of 4) | Grade 1 hypersensitivity reactions ([1]; Visit 5, placebo 1 patient) [patient] | Clinical laboratory tests, hematology, urinalysis, ECGs, vital signs, physical and neurological findings vs placebo ([1]; changes over time) | QT or QTcB result ([1]; no GM604 patient above this value) [ms] | Rash, GM604-treated patients ([1]; of 8) [patients] | Serious adverse events (SAE) ([1]; patient 0203, shortness of breath, judged unrelated to the investigational product) | Deaths or withdrawals due to adverse events ([1]; whole study) | Blood brain barrier penetration [2] | Adverse side effects [3] | Percentage of surviving motor neurons vs untreated controls (surviving motor neurons) | Survival in vitro of anterior horn motor neurons [4]
1 | C[C@H](NC(=O)[C@H](Cc1ccc(O)cc1)NC(=O)[C@H](CCCNC(=N)N)NC(=O)[C@H](CO)NC(=O)[C@@H](N)Cc1ccccc1)C(=O)N[C@@H](CCCNC(=N)N)C(=O)O [GM604, FSRYAR] (H-FSRYAR-OH) | 25 | 37.5 | 50 | 5 out of 8 | 1 | no clinically meaningful differences | ≤ 450 | 2 | 1 | No deaths or withdrawals due to adverse events occurred | able to penetrate the blood brain barrier | no adverse side effects were noted |  | 
2 | MNTF1: motoneuronotrophic factor isolated from rat muscle tissues; recombinant MNTF1-F6 encodes a 33 amino acid sequence (SEQ ID NO:1) (LGTFWGDTLNCWMLSAFSRYARCLAEGHDGPTQ) |  |  |  |  |  |  |  |  |  |  |  |  | markedly higher percentage of surviving motor neurons | selectively enhance the survival
